PubChem BioAssay (NCI)
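Five concentrations, 48 hours, 96-well plates. At the TGI there is no net growth.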

Assays:
Assay in all cases: DTP human tumour cell line panel, 48 h
SW-620 colon = test system: SW-620 colon
COLO 205 colon = test system: COLO 205 colon
SF-295 CNS = test system: SF-295 CNS
SN12C renal = test system: SN12C renal
NCI-H226 lung = test system: NCI-H226 lung
U251 CNS = test system: U251 CNS
MDA-MB-231 breast = test system: MDA-MB-231 breast
MOLT-4 leukemia = test system: MOLT-4 leukemia
HCC-2998 colon = test system: HCC-2998 colon
HL-60(TB) leukemia = test system: HL-60(TB) leukemia
HOP-62 NSCLC = test system: HOP-62 NSCLC
M14 melanoma = test system: M14 melanoma
MDA-MB-435 = test system: MDA-MB-435
EKVX NSCLC = test system: EKVX NSCLC
UO-31 renal = test system: UO-31 renal
SF-268 CNS = test system: SF-268 CNS
HT29 colon = test system: HT29 colon
HCT-116 colon = test system: HCT-116 colon
NCI-H23 lung = test system: NCI-H23 lung
NCI-H460 lung = test system: NCI-H460 lung

Measured: TGI

CN1C2CCC1CC(C)(O)C2 (stereo not given)
> 100 µM: all assays above
